Laboratory results taken from the supplement of paper PMC11061612.

Assays:
[1] = system: SW48 (Colorectal Carcinoma); experiment: Bliss excess, mean over the matrix (fraction); higher = more synergy
Method in brief: (§1)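 Cell lines in DMEM/F12 or RPMI with 10% FBS were plated in 1536-well plates, held 24 hours at 37°C, 5% CO2, then given two-drug dose matrices for 72 hours (DMSO typically 0.2%). Viability was read by CellTiter-Glo 2.0 luminescence and scaled as inhibition from 0 (vehicle wells) to 1 (blank wells). Combination Emax is the second-highest inhibition in the matrix; Bliss excess is observed combination effect minus expected EA + EB − EA·EB, EA and EB being single-agent effects.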

[2] = system: SNU-61 (Colorectal Carcinoma); experiment: as above
Method in brief: as §1

D-392MG (Glioblastoma) = experiment: as above
Method in brief: as §1

[3] = system: SK-UT-1 (Other Solid Carcinomas); experiment: as above
Method in brief: as §1

[4] = system: HLE (Hepatocellular Carcinoma); experiment: as above
Method in brief: as §1

[5] = system: SLVL (B-Cell Non-Hodgkin's Lymphoma); experiment: as above
Method in brief: as §1

HCC38 (Breast Carcinoma) = experiment: combination Emax (second highest fraction inhibited in the dose matrix, 72 h); higher = more inhibition; extreme values may be limits of the assay
Method in brief: as §1

HuO9 (Osteosarcoma) = experiment: as above
Method in brief: as §1

[6] = system: PA-TU-8902 (Pancreatic Carcinoma); experiment: as above
Method in brief: as §1

[7] = system: JHH-6 (Hepatocellular Carcinoma); experiment: as above
Method in brief: as §1

A172 (Glioblastoma) = experiment: as above
Method in brief: as §1

[8] = system: MEG-01 (Chronic Myelogenous Leukemia); experiment: as above
Method in brief: as §1

SK-MEL-1 (Melanoma) = experiment: as above
Method in brief: as §1

[9] = system: HLE (Hepatocellular Carcinoma); experiment: as above
Method in brief: as §1

MSTO-211H (Mesothelioma) = experiment: as above
Method in brief: as §1

[10] = system: SLVL (B-Cell Non-Hodgkin's Lymphoma); experiment: as above
Method in brief: as §1

[11] = system: MES-SA (Other Solid Carcinomas); experiment: as above
Method in brief: as §1

[12] = system: HCT-116 (Colorectal Carcinoma); experiment: as above
Method in brief: as §1

[13] = system: BICR78 (Oral Cavity Carcinoma); experiment: as above
Method in brief: as §1

[14] = system: NOMO-1 (Acute Myeloid Leukemia); experiment: as above
Method in brief: as §1
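For Bliss excess, mean over the matrix in this document: after 72 h of two-drug dosing.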

SMILES | Bliss excess [1] | Bliss excess [2] | Bliss excess (D-392MG (Glioblastoma)) | Bliss excess [3] | Bliss excess [4] | Bliss excess [5] | combination Emax (HCC38 (Breast Carcinoma)) | combination Emax (HuO9 (Osteosarcoma)) | combination Emax [6] | combination Emax [7] | combination Emax (A172 (Glioblastoma)) | combination Emax [8] | combination Emax (SK-MEL-1 (Melanoma)) | combination Emax [9] | combination Emax (MSTO-211H (Mesothelioma)) | combination Emax [10] | combination Emax [11] | combination Emax [12] | combination Emax [13] | combination Emax [14]
CCN(CCO)CCCOc1ccc2c(Nc3cc(CC(=O)Nc4cccc(F)c4)[nH]n3)ncnc2c1 [AZD2811] + O=C(c1cc(Cc2n[nH]c(=O)c3ccccc23)ccc1F)N1CCN(C(=O)C2CC2)CC1 [Olaparib] (first compound max 1 µM, 7x7, partner max 10 µM) | 0.0145 | -0.0184 | -0.0695 | 0.0453 | 0.004 | -0.001 | 0.287 | 0.293 | 0.187 | 0.241 | 0.534 | 0.564 | 0.289 | 0.409 | 0.35 | 0.723 | 0.519 | 0.452 | 0.285 | 0.396
CN(CCO)CC[C@H](CSc1ccccc1)Nc1ccc(S(=O)(=O)NC(=O)c2ccc(N3CCC([C@@H](O)c4ccccc4-c4ccc(Cl)cc4)CC3)cc2)cc1S(=O)(=O)C(F)(F)F [AZD4320] + C[C@@H]1COCCN1C2=NC(=NC(=C2)C3(CC3)[S@](=N)(=O)C)C4=C5C=CNC5=NC=C4 [AZD6738] (first compound max 1 µM, 7x7, partner max 10 µM) | 0.0245 | -0.0406 | -0.0094 | 0.0253 | 0.0036 | 0.0156 | 0.933 | 0.956 | 0.341 | 0.443 | 0.731 | 0.983 | 0.597 | 0.871 | 0.959 | 0.94 | 0.691 | 0.778 | 0.774 | 0.972
COc1nnc2ccc(N3CCC(c4ccc(OCCN5CCN(C)C(=O)[C@H]5C)cc4)CC3)nn12 [AZD5153] + CCN(CCO)CCCOc1ccc2c(Nc3cc(CC(=O)Nc4cccc(F)c4)[nH]n3)ncnc2c1 [AZD2811] (first compound max 1 µM, 7x7, partner max 1 µM) | -0.0821 | -0.0074 | -0.037 | -0.0144 | -0.0177 | -0.151 | 0.426 | 0.673 | 0.323 | 0.552 | 0.574 | 0.895 | 0.556 | 0.521 | 0.26 | 0.696 | 0.587 | 0.759 | 0.542 | 0.961
CC1(C)CCC(CN2CCN(c3ccc(C(=O)NS(=O)(=O)c4ccc(NCC5CCOCC5)c([N+](=O)[O-])c4)c(Oc4cnc5[nH]ccc5c4)c3)CC2)=C(c2ccc(Cl)cc2)C1 [Venetoclax] + C[C@@H](Nc1cc(F)cc(F)c1)c1cc(C(=O)N(C)C)cc2c(=O)cc(N3CCOCC3)oc12 [AZD8186] (first compound max 1 µM, 7x7, partner max 3 µM) | -0.0278 | -0.0314 | -0.061 | -0.0141 | -0.0364 | 0.0395 | 0.16 | 0.468 | 0.115 | 0.193 | 0.171 | 0.646 | 0.198 | 0.504 | 0.207 | 0.746 | 0.168 | 0.0935 | 0.434 | 0.931
COc1cccc(OCCCN)c1-c1cc(Nc2cnc(C#N)cn2)n[nH]1 [Prexasertib] + O=C(c1cc(Cc2n[nH]c(=O)c3ccccc23)ccc1F)N1CCN(C(=O)C2CC2)CC1 [Olaparib] (first compound max 1 µM, 7x7, partner max 10 µM) | -0.0795 | -0.0407 | -0.0698 | -0.0422 | -0.0458 | -0.0051 | 0.677 | 0.878 | 0.501 | 0.499 | 0.626 | 0.893 | 0.596 | 0.842 | 0.806 | 0.974 | 0.809 | 0.744 | 0.679 | 1
Cc1c2c(nn1C)CSCc1cc(n(C)n1)CSc1cc(c3ccccc3c1)OCCCc1c(C(=O)O)n(C)c3c-2c(Cl)ccc13 [AZD5991] + CC1(C)CCC(CN2CCN(c3ccc(C(=O)NS(=O)(=O)c4ccc(NCC5CCOCC5)c([N+](=O)[O-])c4)c(Oc4cnc5[nH]ccc5c4)c3)CC2)=C(c2ccc(Cl)cc2)C1 [Venetoclax] (first compound max 1 µM, 7x7, partner max 1 µM) | 0.0059 | -0.0143 | 0.0314 | -0.0095 | -0.0061 | 0.147 | 0.463 | 1 | 0.139 | 0.0668 | 0.268 | 0.837 | 0.22 | 0.287 | 0.137 | 0.777 | 0.323 | 0.163 | 0.18 | 0.981
COc1cc2ncnc(Nc3ccc(F)c(Cl)c3)c2cc1OCCCN1CCOCC1 [Gefitinib] + CC(C)n1c(=O)n(C)c2cnc3cc(F)c(-c4ccc(OCCCN5CCCCC5)nc4)cc3c21 [AZD1390] (first compound max 10 µM, 7x7, partner max 0.3 µM) | -0.0516 | -0.0929 | -0.086 | -0.0319 | -0.0487 | -0.0591 | 0.109 | 0.12 | 0.14 | 0.144 | 0.169 | 0.11 | 0.43 | 0.101 | 0.0343 | 0.185 | 0.0714 | 0.133 | 0.286 | 0.328
